How the values were obtained:
[1] = system: AKT; assay: Kinase activity in cell-free assay, AKT; type: biochemical; details: enzymatic system; read-out: IC50 on AKT activation
Description: (§1) To confirm this hypothesis, the inhibitory potency of C98 on PI3K enzymes was measured in a cell-free system with individual recombinant human PI3K isoforms. […] To further evaluate its specificity on PI3K, the effects of C98 on other associated kinases AKT, PDK1, and mTOR were also measured in the enzymatic systems. […] Therefore, C98 preferred to inhibit PI3K activity.
(§2) Kinase activity in the presence of C98 was performed by using the HotSpot technology (Reaction Biology Corp., Malvern, PA, USA) as described previously.

[2] = system: JJN3 xenograft; assay: JJN3 myeloma xenograft in nude mice; type: in vivo
[3] = system: PI3K/AKT/mTOR pathway in OPM2 and JJN3 cells; assay: Immunoblotting of PI3K/AKT/mTOR pathway in OPM2 and JJN3 cells; type: cell-based, human; details: OPM2 and JJN3, increasing concentration, 24 hr
Description: Subsequently, the inhibition of C98 on the PI3K signaling pathway was evaluated in MM cell lines OPM2 and JJN3. […] Because all these kinases are downstream signaling proteins in the PI3K pathway while C98 had no effects on AKT and mTOR in the cell free assay, the inhibition of C98 on these kinases was probably due to its suppression on PI3K.
(§3) (B) LP1 and JJN3 cells were starved overnight, then treated with C98 or S14161 for 2 hr, followed by IGF-1 (100 ng/mL) for 15 min. Cells were then prepared for the analysis of the expression of p-AKT, t-AKT, p-IGF-1R, and IGF-1R by immunoblotting. (C) OPM2 and JJN3 cells were treated with increasing concentrations of C98 for 24 hr before being applied to immunoblotting against p-ERK, t-ERK, p-P38, t-P38, p-Src, t-Src, p-STAT3, or t-STAT3. GAPDH and β-actin were used as loading controls.
(§4) The immunoblotting assays were performed as described previously. IRDye 680 goat anti-mouse and IRDye 800CW goat anti-rabbit antibodies were from Odyssey (San Ramon, CA, USA).

[4] = system: OPM2 xenograft; assay: OPM2 myeloma xenograft in nude mice; type: in vivo; details: 80 mg/kg oral daily
[5] = biological target: recombinant human PI3K isoform β (Homo sapiens, UniProt P42338); assay: Kinase activity in cell-free assay (HotSpot), PI3Kβ; type: biochemical; details: read-out: IC50 against PI3K β isoform
Chain of recombinant human PI3K isoform β (P42338 whole entry, canonical isoform): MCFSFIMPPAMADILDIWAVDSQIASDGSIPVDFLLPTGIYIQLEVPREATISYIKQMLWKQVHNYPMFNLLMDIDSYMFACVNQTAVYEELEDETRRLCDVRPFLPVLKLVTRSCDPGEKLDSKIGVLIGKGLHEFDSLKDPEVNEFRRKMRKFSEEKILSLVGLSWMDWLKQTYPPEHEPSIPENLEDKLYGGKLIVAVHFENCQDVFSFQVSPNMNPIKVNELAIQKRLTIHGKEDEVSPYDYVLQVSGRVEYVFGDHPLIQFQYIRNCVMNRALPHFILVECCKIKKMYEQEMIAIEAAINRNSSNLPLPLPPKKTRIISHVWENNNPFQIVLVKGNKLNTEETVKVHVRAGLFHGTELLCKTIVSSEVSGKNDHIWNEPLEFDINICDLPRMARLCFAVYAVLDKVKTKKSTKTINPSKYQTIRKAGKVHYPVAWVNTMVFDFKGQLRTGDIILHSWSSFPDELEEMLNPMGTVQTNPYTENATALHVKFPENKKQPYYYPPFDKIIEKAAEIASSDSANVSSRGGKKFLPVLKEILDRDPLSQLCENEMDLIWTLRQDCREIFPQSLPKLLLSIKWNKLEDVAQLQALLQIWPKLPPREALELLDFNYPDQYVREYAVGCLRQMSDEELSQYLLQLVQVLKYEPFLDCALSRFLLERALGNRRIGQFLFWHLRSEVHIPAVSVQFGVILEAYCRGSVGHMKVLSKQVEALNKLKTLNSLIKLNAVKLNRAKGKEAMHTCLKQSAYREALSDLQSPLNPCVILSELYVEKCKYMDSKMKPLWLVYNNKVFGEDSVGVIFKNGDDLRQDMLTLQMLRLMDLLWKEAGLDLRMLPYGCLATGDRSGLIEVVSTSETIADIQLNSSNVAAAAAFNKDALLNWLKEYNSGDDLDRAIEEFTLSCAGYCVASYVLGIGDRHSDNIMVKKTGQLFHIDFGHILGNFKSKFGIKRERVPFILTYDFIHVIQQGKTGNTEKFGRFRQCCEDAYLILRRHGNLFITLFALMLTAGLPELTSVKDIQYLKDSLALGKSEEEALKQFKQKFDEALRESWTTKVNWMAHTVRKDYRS
Chain of recombinant human PI3K isoform β (P27986 whole entry partner, canonical isoform): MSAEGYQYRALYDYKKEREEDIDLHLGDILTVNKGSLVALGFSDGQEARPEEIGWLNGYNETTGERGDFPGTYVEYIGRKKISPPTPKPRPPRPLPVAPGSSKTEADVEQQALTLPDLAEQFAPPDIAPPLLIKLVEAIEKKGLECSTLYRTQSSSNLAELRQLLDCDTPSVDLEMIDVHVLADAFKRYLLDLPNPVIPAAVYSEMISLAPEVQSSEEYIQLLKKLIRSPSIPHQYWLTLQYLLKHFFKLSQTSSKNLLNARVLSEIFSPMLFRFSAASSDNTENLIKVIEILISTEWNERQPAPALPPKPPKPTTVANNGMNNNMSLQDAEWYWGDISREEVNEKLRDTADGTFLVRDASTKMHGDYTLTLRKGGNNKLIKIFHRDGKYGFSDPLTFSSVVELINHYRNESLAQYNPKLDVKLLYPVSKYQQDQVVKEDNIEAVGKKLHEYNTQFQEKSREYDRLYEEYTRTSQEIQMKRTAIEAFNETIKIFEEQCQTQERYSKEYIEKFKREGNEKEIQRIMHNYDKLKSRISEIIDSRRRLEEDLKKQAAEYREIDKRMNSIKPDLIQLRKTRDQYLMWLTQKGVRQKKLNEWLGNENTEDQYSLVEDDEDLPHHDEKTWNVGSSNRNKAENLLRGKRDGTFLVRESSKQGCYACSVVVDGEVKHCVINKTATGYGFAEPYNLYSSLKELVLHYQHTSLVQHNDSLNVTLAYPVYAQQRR
Description: as §1
(§5) Figure 1 C98 inhibits PI3K activity (A) Chemical structure of C98. (B) OPM2 cells were starved overnight and then treated with six compounds identified from the virtual screening for 2 hr, followed by IGF-1 stimulation for 15 min. Cell lysates were prepared for AKT expression and phosphorylation analyses. The known PI3K inhibitor S14161 was used as a positive control. (C) OPM2 cells were starved overnight, then treated with C98 at indicated concentration (25, 50 and 100 μM) or S14161 (100 μM) for 2 hr, followed by IGF-1 (100 ng/mL) stimulation for 15 min Cell lysates were prepared for AKT expression and phosphorylation analyses. […] Activity of each kinase was determined with HotSpot technology as described in the Methods section “Kinase activity in cell-free assay”. […]

[6] = system: STAT3; assay: Immunoblotting of STAT3 phosphorylation in OPM2 and JJN3 cells; type: cell-based, human; details: OPM2 and JJN3, 24 hr
Description: as §3
To further clarify the effects of C98 on other signaling pathways associated with PI3K signaling, we evaluated ERK and p38, both of which mediate extracellular signaling similar to PI3K. […] We also checked the phosphorylation status of STAT3, a signal transducer and activator of transcription. […] Therefore, C98 had no effects on these kinases/proteins associated with PI3K signaling.
as §4

[7] = biological target: recombinant human PI3K isoform δ (Homo sapiens, UniProt O00329); assay: Kinase activity in cell-free assay (HotSpot), PI3Kδ; type: biochemical; details: read-out: IC50 against PI3K δ isoform
Chain of recombinant human PI3K isoform δ (O00329 whole entry, canonical isoform): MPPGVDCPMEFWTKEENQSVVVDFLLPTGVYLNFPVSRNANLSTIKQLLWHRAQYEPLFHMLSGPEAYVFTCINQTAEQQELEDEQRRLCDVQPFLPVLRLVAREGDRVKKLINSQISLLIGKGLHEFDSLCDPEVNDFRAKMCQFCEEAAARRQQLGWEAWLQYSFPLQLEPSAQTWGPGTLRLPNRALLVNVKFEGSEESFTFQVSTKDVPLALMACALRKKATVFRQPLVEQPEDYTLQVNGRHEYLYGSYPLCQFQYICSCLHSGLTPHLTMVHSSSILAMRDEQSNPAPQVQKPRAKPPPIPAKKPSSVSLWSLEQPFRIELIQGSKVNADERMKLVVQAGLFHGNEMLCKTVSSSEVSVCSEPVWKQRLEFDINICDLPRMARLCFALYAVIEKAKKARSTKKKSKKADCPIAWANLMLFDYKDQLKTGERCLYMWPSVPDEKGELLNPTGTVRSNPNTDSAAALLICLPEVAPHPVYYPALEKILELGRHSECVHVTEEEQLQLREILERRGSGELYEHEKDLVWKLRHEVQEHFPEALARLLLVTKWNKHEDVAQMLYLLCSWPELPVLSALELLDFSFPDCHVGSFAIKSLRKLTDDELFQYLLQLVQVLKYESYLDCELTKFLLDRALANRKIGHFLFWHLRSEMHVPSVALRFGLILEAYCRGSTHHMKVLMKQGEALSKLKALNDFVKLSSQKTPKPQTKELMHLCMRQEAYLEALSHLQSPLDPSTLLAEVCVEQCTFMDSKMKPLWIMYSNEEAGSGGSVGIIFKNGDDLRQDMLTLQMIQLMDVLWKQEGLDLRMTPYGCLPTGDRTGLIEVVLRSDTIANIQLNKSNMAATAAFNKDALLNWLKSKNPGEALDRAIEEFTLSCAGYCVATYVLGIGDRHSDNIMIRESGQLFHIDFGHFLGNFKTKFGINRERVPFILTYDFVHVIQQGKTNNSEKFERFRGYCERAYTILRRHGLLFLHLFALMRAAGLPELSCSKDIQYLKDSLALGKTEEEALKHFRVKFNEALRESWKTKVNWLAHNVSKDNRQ
Chain of recombinant human PI3K isoform δ (P27986 whole entry partner, canonical isoform): as the sequence (P27986 whole entry partner, canonical isoform) above
Description: as §1, §5

[8] = system: T1, mTOR; assay: Kinase activity in cell-free assay, mTOR; type: biochemical; details: enzymatic system, even at a concentration of 300 μM
T1 construct: purchased Reaction Biology Corp., Malvern, PA, USA
Description: as §1, §2

[9] = JJN3 xenograft, 40 mg/kg oral daily, 16 days
[10] = JJN3 xenograft, 80 mg/kg oral daily, 16 days

- IC50 [1]: 61.4 µM
- IC50 [5]: 1.64 µM
- IC50 [7]: 3.65 µM
Structure (SMILES): N#C/C(=C\C=C\c1ccc(-c2cc(Cl)ccc2Cl)o1)C(N)=S [C98]
- AKT phosphorylation in tumors ([2]; JJN3 tumors, both 40 and 80 mg/kg doses, immunoblotting): decreased
- decrease of tumor growth [2, 9]: 48%
- tumor volume [2, 9]: 1293.1 ± 289.7 mm^3
- decreased tumor growth to % [2, 10]: 76.5%
- tumor volume [2, 10]: 581.2 ± 73.2 mm^3
- cleavage of PARP in tumors ([2]; MM tumors excised from C98-treated mice, especially high dose group): cleavage of PARP was found
- phosphorylation levels of AKT, mTOR, p70S6K, and 4E-BP1 [3]: downregulated
- tumors decreased to % of the vehicle control ([4]; 16-day treatment): 45%
- tumor volume at the end of the experiment ([4]; 16 days): 605.8 ± 115.7 mm^3
- phosphorylated STAT3 [6]: did not decrease
- suppression of mTOR activity [8]: failed to suppress

Reference: PMC4381587, “A novel PI3K inhibitor PIK-C98 displays potent preclinical activity against multiple myeloma” (Oncotarget, 2014)
